We go through 12 compounds from patent US7799814B2, “Thiazole derivatives and use thereof” (Merck Serono S.A., priority 2005, dated 2010).

In the first test the test system is Akt/PKB phosphorylation in Raw 264-7 macrophages. In words: Cell based ELISA to monitor PI3K inhibition: Akt/PKB phosphorylation in macrophages after stimulation with Complement 5a. The following applies: Mus musculus, RAW264.7, 50 nM Complement 5a stimulation, phospho Serine 473 Akt, read-out: Cell Assay (P-Akt, Elisa) IC50. On the procedure: b) Cell Based ELISA to Monitor PI3K Inhibition:
The efficacy of compounds of the invention in inhibiting the PI3K induced Akt/PKB phosphorylation may be tested in the following cell based assay.
Measurement of Akt/PKB phosphorylation in macrophages after stimulation with Complement 5a: Raw 264: Raw 264-7 macrophages (cultured in DMEM-F12 medium containing 10% Fetal Calf serum and antibiotics) are plated at 20'000 cells/well in a 96 MTP 24 h before cell stimulation. Prior to the stimulation with 50 nM of Complement 5a during 5 minutes, Cells are serum starved for 2 h, and pretreated with inhibitors for 20 minutes. After stimulation cells are fixed in 4% formaldehyde for 20 minutes and washed 3 times in PBS containing 1% Triton X-100 (PBS/Triton). […] Next, phosphorylated Akt/PKB is detected by an overnight incubation at 4° C. with primary antibody (anti phospho Serine 473 Akt IHC, Cell Signaling) diluted 800-fold in PBS/Triton, containing 5% bovine serum albumin (BSA). After 3 washes in PBS/Triton, cells are incubated for 60 minutes with a peroxidase conjugated goat-anti-rabbit secondary antibody ( 1/400 dilution in PBS/Triton, containing 5% BSA), washed 3 times in PBS/Triton, and 2 times in PBS and further incubated in 100 μl of luminescent substrate reagent solution (Pierce) for 2 minutes, followed by the reading (1 s/well). […]
In general terms: In an ELISA, binding on a coated surface is turned into a signal by an enzyme label.
Consider `C=CCNC(=O)c1nc(-c2sc(NC(C)=O)nc2C)cs1` [Example 2, 2′-(Acetylamino)-N-allyl-4′-methyl-4,5′-bi-1,3-thiazole-2-carboxamide], for which the concentration for half-maximal inhibition (IC50) stood at 710 nM. Take `CC(=O)Nc1nc(C)c(-c2csc(C(=O)N3CCOCC3)n2)s1` [Example 8, N-[4′-methyl-2-(morpholin-4-ylcarbonyl)-4,5′-bi-1,3-thiazol-2′-yl]acetamide]: the IC50 stood at 910 nM.

For the next test, the target named is Human recombinant GST-PI3Kγ (Homo sapiens, UniProt P48736). In words: High Throughput PI3K Lipid Kinase Assay (scintillation proximity assay, neomycin-coated SPA beads). The test is classed as biochemical.
Sequence of Human recombinant GST-PI3Kγ (P48736 whole entry): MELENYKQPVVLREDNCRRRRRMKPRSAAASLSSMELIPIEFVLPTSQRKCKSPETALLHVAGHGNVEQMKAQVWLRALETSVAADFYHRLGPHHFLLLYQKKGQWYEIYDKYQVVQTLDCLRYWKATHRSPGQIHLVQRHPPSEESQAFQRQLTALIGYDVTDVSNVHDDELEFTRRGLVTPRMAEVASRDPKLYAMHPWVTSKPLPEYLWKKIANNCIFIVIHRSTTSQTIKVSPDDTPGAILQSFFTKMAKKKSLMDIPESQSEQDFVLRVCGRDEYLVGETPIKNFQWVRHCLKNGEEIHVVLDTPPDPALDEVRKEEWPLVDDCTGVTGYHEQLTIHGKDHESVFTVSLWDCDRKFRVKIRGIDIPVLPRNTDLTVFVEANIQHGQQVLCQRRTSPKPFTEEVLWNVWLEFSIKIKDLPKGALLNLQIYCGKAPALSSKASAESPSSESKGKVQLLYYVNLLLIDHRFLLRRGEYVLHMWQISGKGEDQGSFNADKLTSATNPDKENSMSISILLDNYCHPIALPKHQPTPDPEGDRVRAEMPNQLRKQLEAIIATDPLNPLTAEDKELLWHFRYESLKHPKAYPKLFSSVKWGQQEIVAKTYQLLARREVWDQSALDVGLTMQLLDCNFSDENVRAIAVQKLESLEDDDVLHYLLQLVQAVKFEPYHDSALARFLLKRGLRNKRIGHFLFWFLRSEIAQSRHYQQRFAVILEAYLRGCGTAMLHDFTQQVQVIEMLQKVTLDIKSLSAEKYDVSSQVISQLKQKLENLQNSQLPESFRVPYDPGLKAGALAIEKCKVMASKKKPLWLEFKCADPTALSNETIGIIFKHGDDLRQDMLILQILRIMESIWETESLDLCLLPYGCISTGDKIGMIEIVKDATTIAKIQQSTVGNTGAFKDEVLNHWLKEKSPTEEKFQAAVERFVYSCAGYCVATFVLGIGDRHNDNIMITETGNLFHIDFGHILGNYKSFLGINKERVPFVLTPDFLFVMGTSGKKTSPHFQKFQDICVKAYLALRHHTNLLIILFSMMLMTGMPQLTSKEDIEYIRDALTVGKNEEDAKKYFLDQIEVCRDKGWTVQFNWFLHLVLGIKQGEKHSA
Conditions: not given
The source says: a) High Throughput PI3K Lipid Kinase Assay (Binding Assay):
The efficacy of compounds of the invention in inhibiting the PI3K induced-lipid phosphorylation may be tested in the following binding assay.
The assay combines the scintillation proximity assay technology (SPA, Amersham) with the capacity of neomycin (a polycationic antibiotic) to bind phospholipids with high affinity and specificity. The Scintillation Proximity Assay is based on the properties of weakly emitting isotopes (such as ^3H, ^125I, ^33P). Coating SPA beads with neomycin allows the detection of phosphorylated lipid substrates after incubation with recombinant PI3K and radioactive ATP in the same well, by capturing the radioactive phospholipids to the SPA beads through their specific binding to neomycin.
To a 384 wells MTP containing 5 μl of the test compound of Formula (I) (solubilized in 6% DMSO; to yield a concentration of 100, 30, 10, 3, 1, 0.3, 0.1, 0.03, 0.01, 01 μM of the test compound), the following assay components are added. 1) 5 μl (58 ng) of Human recombinant GST-PI3Kγ (in Hepes 40 mM, pH 7.4, DTT 1 mM and ethylenglycol 5%) 2) 10 μl of lipid micelles and 3) 10 μl of Kinase buffer ([^33P]γ ATP. 45 μM/60 nCi, MgCl mM, DTT 1 mM, β Glycerophosphate 1 mM, NVO4 100 μM, Na Cholate 0.3%, in Hepes 40 mM, pH 7.4). After incubation at room temperature for 180 minutes, with gentle agitation, the reaction is stopped by addition of 60 μl of a solution containing 100 μg of neomycin-coated PVT SPA beads in PBS containing ATP 10 mM and EDTA 5 mM. The assay is further incubated at room temperature for 60 minutes with gentle agitation to allow binding of phospholipids to neomycin-SPA beads. After precipitation of the neomycin-coated PVT SPA beads for 5 minutes at 1500×g, radioactive PtdIns(3)P is quantified by scintillation counting in a Wallac MicroBeta™ plate counter.
The values indicated in Table I below refer to the IC50 (μM) with respect to PI3Kγ, i.e. the amount necessary to achieve 50% inhibition of said target. Said values show a considerable inhibitory potency of thiazole compounds with regard to PI3Kγ.
(In general: In a scintillation proximity assay essentially only radioactivity close to the scintillant gives light.)
With `CCOC(=O)c1nc(-c2sc(NC(C)=O)nc2C)cs1` [Example 1, Ethyl 2′-(acetylamino)-4′-methyl-4,5′-bi-1,3-thiazole-2-carboxylate], the half-maximal inhibitory concentration (IC50) was 870 nM. With `CC(=O)Nc1nc(C)c(-c2csc(C(=O)O)n2)s1` [Example 4, 2′-(Acetylamino)-4′-methyl-4,5′-bi-1,3-thiazole-2-carboxylic acid], the IC50 was 494 nM. `CC(=O)Nc1nc(C)c(-c2csc(C(=O)NCC3CCCO3)n2)s1` (stereo not shown) [Example 6, 2′-(Acetylamino)-4′-methyl-N-(tetrahydrofuran-2-ylmethyl)-4,5′-bi-1,3-thiazole-2-carboxamide]: the IC50 amounted to 355 nM. On to `CC(=O)Nc1nc(C)c(-c2csc(C(=O)N3CCOCC3)n2)s1` [Example 8, N-[4′-methyl-2-(morpholin-4-ylcarbonyl)-4,5′-bi-1,3-thiazol-2′-yl]acetamide], for which the IC50 was found to be 186 nM. On to `CC(=O)Nc1nc(C)c(-c2csc(C(=O)N3CCN(C)CC3)n2)s1` [Example 9, N-{4′-methyl-2-[(4-methylpiperazin-1-yl)carbonyl]-4,5′-bi-1,3-thiazol-2′-yl}acetamide], for which the concentration for half-maximal inhibition (IC50) worked out at 601 nM. Regarding `CC(=O)Nc1nc(C)c(-c2csc(C(=O)NCCCN(C)C)n2)s1` [Example 10, 2′-(Acetylamino)-N-[3-(dimethylamino)propyl]-4′-methyl-4,5′-bi-1,3-thiazole-2-carboxamide], the IC50 was 2200 nM. Same read-out and setting: the same measure for `CC(=O)Nc1nc(C)c(-c2csc(C(=O)Nc3nnn[nH]3)n2)s1` [Example 13, 2′-(acetylamino)-4′-methyl-N-1H-tetrazol-5-yl-4,5′-bi-1,3-thiazole-2-carboxamide]: 13 nM; for `CC(=O)Nc1nc(C)c(-c2csc(Cc3nnn[nH]3)n2)s1` [Example 23, N-[4′-methyl-2-(2H-tetrazol-5-ylmethyl)-4,5′-bi-1,3-thiazol-2′-yl]acetamide]: 328 nM. The same measure, in the same setting: the same measure for `CC(=O)Nc1nc(C)c(-c2csc(C(=O)Nc3cccc(-c4nnc(N)s4)c3)n2)s1` [Example 25, 2′-(acetylamino)-N-[3-(5-amino-1,3,4-thiadiazol-2-yl)phenyl]-4′-methyl-4,5′-bi-1,3-thiazole-2-carboxamide]: 1540 nM.

Take `COCCNC(=O)Nc1nc(C)c(-c2csc(C(=O)N3CCOCC3)n2)s1` [Example 36, N-(2-methoxyethyl)-N′-[4′-methyl-2-(morpholin-4-ylcarbonyl)-4,5′-bi-1,3-thiazol-2′-yl]urea]: the 50% inhibitory concentration (IC50) was 795 nM. Regarding `CCOC(=O)c1nc(-c2sc(Nc3cnccn3)nc2C)cs1` [Example 54, Ethyl 4′-methyl-2′-(pyrazin-2-ylamino)-4,5′-bi-1,3-thiazole-2-carboxylate], the IC50 stood at 1420 nM.

The IC50 is the midpoint of a concentration-inhibition curve.
